Source: US5084453A, “1-carboxy-1-vinyloxyimino aminothiazole cephalosporin derivatives” (priority 1988, dated 1992)
Converted amounts (≈) assume the structure as drawn. Like-named read-outs stand apart in the source and are kept apart here.

Experiments:
Test in all cases: in vitro antibacterial activity, agar plate dilution method
Format in all cases: cell-based
Ps. aeruginosa AK 109 = conditions: Pseudomonas aeruginosa
Procedure: (§1) Now, the in vitro antibacterial activities of the compounds of the present invention against various microorganisms, were measured by the following agar plate dilution method.
(§2) One platinum loopfull of each test microorganism incubated overnight in Mueller Hinton broth, was inoculated to Mueller Hinton agar (MH agaer). Such culture media containing various antibiotics in various concentrations were prepared. After incubation at 37° C. for 16 hours, the minimum inhibitory concentrations (MIC μg/ml) were measured.

E. coli CSH2(RK1)* = conditions: Escherichia coli, 16 h
Procedure: as §1, §2

K. pneumoniae PC1-602 = conditions: Klebsiella pneumoniae
Procedure: as §1, §2

S. marcescens IAM 1184 = conditions: Serratia marcescens
Procedure: as §1, §2

K. pneumoniae No. 42* = conditions: Klebsiella pneumoniae
Procedure: as §1, §2

A. calcoaceticus No. 4 = conditions: Acinetobacter calcoaceticus
Procedure: as §1, §2

E. coli GN5482* = conditions: Escherichia coli, GN5482, 16 h
Procedure: as §1, §2

Ps. aeruginosa AKR17 = conditions: Pseudomonas aeruginosa
Procedure: as §1, §2

M. morganii GN5407* = conditions: Morganella morganii
Procedure: as §1, §2

S. aureus 209P NIHJ-JC1 = conditions: Staphylococcus aureus
Procedure: as §1, §2

Ps. aeruginosa IFO3445 = conditions: Pseudomonas aeruginosa, IFO3445, 16 h
Procedure: as §1, §2

P. vulgaris HX-19 = conditions: Proteus vulgaris, HX19; 10^6 CFU/ml; Mueller Hinton agar, 37° C., 16 hours; read-out: MIC
Procedure: as §1, §2

E. coli NIHJ JC2 = conditions: Escherichia coli, NIHJJC2; 10^6 CFU/ml; Mueller Hinton agar, 37° C., 16 hours; read-out: MIC
Procedure: as §1, §2

K. oxytoca GN10650* = conditions: Klebsiella oxytoca
Procedure: as §1, §2

S. marcescens No. 16-2* = conditions: Serratia marcescens
Procedure: as §1, §2

E. cloacae Nek 39* = conditions: Enterobacter cloacae
Procedure: as §1, §2

E. coli CSH(RE45)* = conditions: Escherichia coli; 10^6 CFU/ml; β-Lactamase-producing strain; 37° C., 16 hours; read-out: MIC
Procedure: as §1, §2

Ps. cepacia 23 = system: Ps. cepacia 23
Procedure: as §1, §2

P. vulgaris No. 33* = conditions: Proteus vulgaris
Procedure: as §1, §2

E. cloacae 963 = conditions: Enterobacter cloacae, 963, 16 h
Procedure: as §1, §2

[1] = AK109, 10^6 CFU/ml, Mueller Hinton agar, 37° C., 16 hours, read-out: MIC
[2] = PC1602, 10^6 CFU/ml, Mueller Hinton agar, 37° C., 16 hours, read-out: MIC
[3] = IAM1184, 10^6 CFU/ml, Mueller Hinton agar, 37° C., 16 hours, read-out: MIC
[4] = 10^6 CFU/ml, β-Lactamase-producing strain, 37° C., 16 hours, read-out: MIC
[5] = AKR17, 10^6 CFU/ml, Mueller Hinton agar, 37° C., 16 hours, read-out: MIC
[6] = GN5407, 10^6 CFU/ml, β-Lactamase-producing strain, 37° C., 16 hours, read-out: MIC
[7] = 10^6 CFU/ml, Mueller Hinton agar, 37° C., 16 hours, read-out: MIC
[8] = Burkholderia cepacia, 23, 10^6 CFU/ml, Mueller Hinton agar, 37° C., 16 hours, read-out: MIC
[9] = NO.4, 10^6 CFU/ml, Mueller Hinton agar, 37° C., 16 hours, read-out: MIC

| SMILES | MIC (Ps. aeruginosa AK 109; [1]) | MIC (E. coli CSH2(RK1)*) | MIC (K. pneumoniae PC1-602; [2]) | MIC (S. marcescens IAM 1184; [3]) | MIC (E. coli GN5482*) | MIC (Ps. aeruginosa AKR17; [5]) | MIC (S. aureus 209P NIHJ-JC1; [7]) | MIC (Ps. aeruginosa IFO3445) | MIC (P. vulgaris HX-19) | MIC (E. coli NIHJ JC2) | MIC (S. marcescens No. 16-2*; 16 h) | MIC (E. coli CSH(RE45)*) | MIC (E. cloacae 963) | MIC (K. pneumoniae No. 42*; 16 h) | MIC (M. morganii GN5407*; GN5407, 16 h) | MIC (K. oxytoca GN10650*; GN10650, 16 h) | MIC (E. cloacae Nek 39*; 16 h) | MIC (Ps. cepacia 23; [8]) | MIC (A. calcoaceticus No. 4; [9]) | MIC (P. vulgaris No. 33*; [4]) | further results |
| --- | --- | --- | --- | --- | --- | --- | --- | --- | --- | --- | --- | --- | --- | --- | --- | --- | --- | --- | --- | --- | --- |
| C=C(O/N=C(\C(=O)N[C@@H]1C(=O)N2C(C(=O)O)=C(CSc3nc(-c4ccc(O)c(O)c4)cs3)CS[C@H]12)c1csc(N)n1)C(=O)O [Example 12, disodium 7β-[2-(2-aminothiazol-4-yl)-2-(1-carboxylato-1-vinyloxyimino)acetamido]-3-[4-(3,4-dihydroxyphenyl)thiazol-2-yl]thiomethyl-3-cephem-4-carboxylate(syn-isomer)] | 1.56 µg/mL | 0.025 µg/mL | < 0.006 µg/mL | 0.05 µg/mL | 0.39 µg/mL | 3.12 µg/mL | 3.12 µg/mL | 0.78 µg/mL | < 0.006 µg/mL | 0.39 µg/mL | 0.39 µg/mL | 0.025 µg/mL | 0.2 µg/mL |  |  |  |  |  |  |  | MIC (K. pneumoniae No. 42*; [4]): 0.05 µg/mL; MIC (A. calcoaceticus No. 4; NO.4, 16 h): 0.2 µg/mL; MIC (M. morganii GN5407*; [6]): 0.05 µg/mL; MIC (K. oxytoca GN10650*; GN10650, 10^6 CFU/ml, β-Lactamase-producing strain, 37° C., 16 hours, read-out: MIC): 0.1 µg/mL; MIC (E. cloacae Nek 39*; [4]): 0.1 µg/mL; MIC (Ps. cepacia 23; Burkholderia cepacia, 23, 16 h): 0.025 µg/mL; MIC (P. vulgaris No. 33*; 16 h): 0.025 µg/mL |
| C=C(O/N=C(\C(=O)N[C@@H]1C(=O)N2C(C(=O)O)=C(CSc3nc(-c4ccc(OC(C)=O)c(OC(C)=O)c4)c(CC(=O)O)s3)CS[C@H]12)c1csc(N)n1)C(=O)O [Example 16, trisodium 3-[4-(3,4-diacetoxyphenyl)-5-carboxylatomethylthiazol-2-yl]thiomethyl-7β-[2-(2-aminothiazol-4-yl)-2-(1-carboxylato-1-vinyloxyimino)acetamido]-3-cephem-4-carboxylate (syn-isomer)] |  | 0.05 µg/mL | < 0.006 µg/mL |  | 0.78 µg/mL |  | 12.5 µg/mL | 0.78 µg/mL | < 0.006 µg/mL | 0.78 µg/mL | 0.78 µg/mL | 1.56 µg/mL | 0.39 µg/mL | 0.1 µg/mL | 0.05 µg/mL | 0.1 µg/mL | 0.2 µg/mL | < 0.006 µg/mL |  |  | MIC (Ps. aeruginosa AK 109; AK109, 16 h): 0.78 µg/mL; MIC (S. marcescens IAM 1184; IAM1184, 16 h): 0.05 µg/mL; MIC (A. calcoaceticus No. 4; NO.4, 16 h): 0.2 µg/mL; MIC (Ps. aeruginosa AKR17; AKR17, 16 h): 1.56 µg/mL; MIC (P. vulgaris No. 33*; 16 h): 0.025 µg/mL |
| C=C(O/N=C(\C(=O)N[C@@H]1C(=O)N2C(C(=O)[O-])=C(C[n+]3ccc(C(N)=O)cc3)CS[C@H]12)c1csc(N)n1)C(=O)O [Example 6, 7β-[2-(2-aminothiazol-4-yl)-2-(1-carboxy-1-vinyloxyimino)acetamido]-3-(4-carbamoyl-1-pyridinio)methyl-3-cephem-4-carboxylate (syn-isomer)] | 12.5 µg/mL (≈ 21.8 µM) | 0.025 µg/mL (≈ 0.0436 µM) | < 0.006 µg/mL | < 0.006 µg/mL | 0.39 µg/mL (≈ 0.68 µM) | > 100 µg/mL |  | 6.25 µg/mL (≈ 10.9 µM) | 0.0125 µg/mL (≈ 0.0218 µM) | 0.05 µg/mL (≈ 0.0872 µM) |  | 0.025 µg/mL (≈ 0.0436 µM) | 0.05 µg/mL (≈ 0.0872 µM) | 0.1 µg/mL (≈ 0.174 µM) | 0.025 µg/mL (≈ 0.0436 µM) | 0.2 µg/mL (≈ 0.349 µM) | 1.56 µg/mL (≈ 2.72 µM) | 3.12 µg/mL (≈ 5.44 µM) | 12.5 µg/mL (≈ 21.8 µM) | 0.0125 µg/mL (≈ 0.0218 µM) | MIC (S. aureus 209P NIHJ-JC1; 16 h): 1.56 µg/mL (≈ 2.72 µM); MIC (S. marcescens No. 16-2*; [4]): 3.12 µg/mL (≈ 5.44 µM) |
| C=C(O/N=C(\C(=O)N[C@@H]1C(=O)N2C(C(=O)O)=C(CSc3nnnn3C)CS[C@H]12)c1csc(N)n1)C(=O)O [Example 19, disodium 7β-[2-(2-aminothiazol-4-yl)-2-(1-carboxylato-1-vinyloxyimino)acetamido]-3-(1-methyl-1H-tetrazol-5-yl)thiomethyl-3-cephem-4-carboxylate (syn-isomer)] |  | 0.025 µg/mL | 0.0125 µg/mL | < 0.006 µg/mL | 0.39 µg/mL | > 100 µg/mL |  | 6.25 µg/mL | < 0.006 µg/mL | 0.05 µg/mL | 1.56 µg/mL | 0.1 µg/mL | 0.1 µg/mL | 0.2 µg/mL | 0.025 µg/mL | 0.05 µg/mL | 0.78 µg/mL | 3.12 µg/mL | 100 µg/mL | < 0.006 µg/mL | MIC (Ps. aeruginosa AK 109; AK109, 16 h): 6.25 µg/mL; MIC (S. aureus 209P NIHJ-JC1; 16 h): 6.25 µg/mL |
| C=C(O/N=C(\C(=O)N[C@@H]1C(=O)N2C(C(=O)[O-])=C(C[n+]3cccc(C(N)=O)c3)CS[C@H]12)c1csc(N)n1)C(=O)O [Example 4, 7β-[2-(2-aminothiazol-4-yl)-2-(1-carboxy-1-vinyloxyimino)acetamido] vinyloxyimino)acetamido]-3-(3-carbamoyl-1-pyridinio)methyl-3-cephem-4-carboxylate (syn-isomer)] | 12.5 µg/mL (≈ 21.8 µM) | 0.025 µg/mL (≈ 0.0436 µM) | 0.0125 µg/mL (≈ 0.0218 µM) | 0.0125 µg/mL (≈ 0.0218 µM) | 0.2 µg/mL (≈ 0.349 µM) | > 100 µg/mL |  | 1.56 µg/mL (≈ 2.72 µM) | 0.0125 µg/mL (≈ 0.0218 µM) | 0.05 µg/mL (≈ 0.0872 µM) | 0.78 µg/mL (≈ 1.36 µM) | 0.025 µg/mL (≈ 0.0436 µM) | 0.05 µg/mL (≈ 0.0872 µM) | 0.1 µg/mL (≈ 0.174 µM) |  | 0.1 µg/mL (≈ 0.174 µM) | 0.2 µg/mL (≈ 0.349 µM) | 3.12 µg/mL (≈ 5.44 µM) | 3.12 µg/mL (≈ 5.44 µM) | 0.0125 µg/mL (≈ 0.0218 µM) | MIC (M. morganii GN5407*; [6]): 0.0125 µg/mL (≈ 0.0218 µM); MIC (S. aureus 209P NIHJ-JC1; 16 h): 1.56 µg/mL (≈ 2.72 µM) |
| C=C(O/N=C(\C(=O)N[C@@H]1C(=O)N2C(C(=O)O)=C(CSc3nnnn3CC(=O)O)CS[C@H]12)c1csc(N)n1)C(=O)O [Example 20, trisodium 7β-[2-(2-aminothiazol-4-yl)-2-(1-carboxylato-1-vinyloxyimino)acetamido]-3-(1-carboxylatomethyl-1H-tetrazol-5-yl)thiomethyl-3-cephem-4-carboxylate (syn-isomer)] | 12.5 µg/mL | 0.2 µg/mL |  |  | 1.56 µg/mL | > 100 µg/mL | 25 µg/mL | 6.25 µg/mL | < 0.006 µg/mL | 0.39 µg/mL |  | 0.78 µg/mL | 0.39 µg/mL | 0.78 µg/mL | 0.05 µg/mL | 0.39 µg/mL |  | 3.12 µg/mL | 100 µg/mL | < 0.006 µg/mL | MIC (K. pneumoniae PC1-602; PC1602, 16 h): 0.1 µg/mL; MIC (S. marcescens IAM 1184; IAM1184, 16 h): 0.05 µg/mL; MIC (S. marcescens No. 16-2*; [4]): 3.12 µg/mL; MIC (E. cloacae Nek 39*; [4]): 3.12 µg/mL |
